These results are taken from patent publication US20110038856A1, “METHODS OF TREATING NEOPLASTIC, AUTOIMMUNE AND INFLAMMATORY DISEASES” (Seattle Genetics, Inc., priority 2006, published 2011).

One test has as its system HEL 92.1.7 cells. In words: Complement-dependent cytotoxicity (CDC) on MDR+ CD33-positive AML cell line. Format: cell-based, human. The settings on record: HEL 92.1.7 cells preincubated with drug for two hours prior to anti-CD33 Ab; FIG. 4. As for the experimental part:
The purpose of this study was to determine whether the cytotoxic effects of an anti-CD33 antibody (HuM195) on AML cells could be enhanced by combination treatment with chemotherapeutic drugs. An MDR^+, CD33-positive AML cell line (HEL 92.1.7) was either untreated or preincubated with the indicated concentrations of thalidomide or 5-azacytidine for two hours prior to exposure to the anti-CD33 Ab. Cytotoxic activity was measured using a complement-dependent cytotoxicity (CDC) activity.

The test system of a further test is HL-60 cells. The test can be described thus: Mouse AML model, HL-60 cells injected intravenously. The format is in vivo, mice. As for the experimental part: Mice were implanted with an AML cell line, HL-60, as follows: 5 million HL-60 cells were injected intravenously. The mice were treated with lintuzumab (10 mg/kg, q4d×4, ip), cytarabine (1 mg/kg, 5 mg/kg or 25 mg/kg, q1d×10, or 50 mg/kg or 100 mg/kg, q2d×5, ip) or lintuzumab with cytarabine (dosed as described previously). Treatment began on day one.
To confirm the data of the in vitro study, mice were implanted with an AML cell line, HL-60, as follows: 5 million HL-60 cells were injected intravenously. […] Treatment began on day one.

The test system of the next test is target cells. The test can be described thus: ADCC activity, standard 51Cr release assay with NK cells. The format is cell-based. The following applies: NK cells pre-treated for 2 to 3 h with drug prior to addition to target cells; FIG. 23. As to the method: Viable NK cells were pre-treated for 2 to 3 h with lenalidomide or thalidomide (as described in FIG. 23) prior to addition to target cells.

Test [1] concerns the target T1, CD33 (Homo sapiens, UniProt P20138). The test can be described thus: Binding of deglycosylated SGN-33 to CD33 by ELISA. The settings on record: data not shown.
Test [2] is described as follows: Effector function (ADCC or CDC activity) of deglycosylated antibody. The format is cell-based. The following applies: data not shown; unlike the intact antibody.
Test [3] relates to primary human macrophages. The test can be described thus: Macrophage migration in response to chemoattractants (CytoSelect Cell Migration Assay). The format is cell-based. The following applies: 10% human serum or 20% conditioned media from RPMI 8226 cells; p<0.05; FIG. 21. As for the experimental part:
The migration of macrophages in response to challenge with plating media containing 10% human serum, 20% conditioned tumor cell media, or 50 ng/ml TGF-β, VEGF, TNF-α, or IFN-γ was evaluated using the CytoSelect Cell Migration Assay (Cell Biolabs, San Diego, Calif.). […] The study was stopped 18 hours later and migration was evaluated after dissociation of the cells from the membrane followed by detection with Cyquant GR dye.
The migration of macrophages in response to challenge with plating media containing 10% human serum or 20% conditioned tumor cell media was evaluated using the CytoSelect Cell Migration Assay (Cell Biolabs, San Diego, Calif.). […] The studies were stopped 18 h later and migration was evaluated after dissociation of the cells from the membrane followed by detection with Cyquant GR dye.

Test [4] has as its target T1, CD33. The test can be described thus: SGN-33 signaling in HL-60 cells, primary human monocytes and macrophages (CD33 immunoprecipitation, Western blot). The following applies: HL-60 and monocytes; 30 minutes; FIG. 16. The format is cell-based. Set-up: endogenous in cells; host or cells: HL-60 (ATCC); primary human CD14+ monocytes (Cambrex); macrophages derived from human PBMCs. As for the experimental part: Deglycosylation was confirmed by CE-SDS. […] Cell lysates were prepared and CD33 immunoprecipitated using an anti-CD33 rabbit polyclonal antibody (Santa Cruz Biotechnology, Santa Cruz, Calif.) prior to SDS PAGE gel electrophoresis. Western blot analyses of these samples were performed using the 4G10 phosphotyrosine antibody (Upstate Biotechnology, Temucula, Calif.), anti-CD33 antibody (NovoCastra, Norwell, Mass.), and anti-SHP-1 antibody (Calbiochem, San Diego, Calif.). Control lysate for SHP-1 was prepared from a B cell lymphoma cell line.

T1 sequence (P20138 18-364): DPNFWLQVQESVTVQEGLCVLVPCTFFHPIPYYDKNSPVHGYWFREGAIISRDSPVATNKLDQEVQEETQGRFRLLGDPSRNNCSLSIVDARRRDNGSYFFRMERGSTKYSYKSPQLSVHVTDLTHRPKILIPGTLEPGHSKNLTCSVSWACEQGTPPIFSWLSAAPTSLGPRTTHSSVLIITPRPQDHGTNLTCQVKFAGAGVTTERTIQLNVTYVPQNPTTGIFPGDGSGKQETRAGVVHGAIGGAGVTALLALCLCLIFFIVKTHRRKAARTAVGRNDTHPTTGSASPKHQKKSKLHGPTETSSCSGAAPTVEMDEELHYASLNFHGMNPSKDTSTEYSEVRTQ

In the case of `Nc1ncn([C@@H]2O[C@H](CO)[C@@H](O)[C@H]2O)c(=O)n1` [5-azacytidine], in the test on HEL 92.1.7 cells, the “sensitivity of MDR+ AML cells to HuM195-mediated CDC activity” value is listed as “enhanced the sensitivity”.

For the molecule `Nc1ccn([C@@H]2O[C@H](CO)[C@@H](O)[C@@H]2O)c(=O)n1` [cytarabine, reference compound], in the test with HL-60 cells (low doses of cytarabine alone, ip, FIG. 22), the “percent survival rates compared to untreated controls” value is given as “increasing percent survival rates”.

On to `Nc1cccc2c1CN(C1CCC(=O)NC1=O)C2=O` (stereo not shown) [lenalidomide, reference compound], for which, in the test on target cells, the “SGN-33 mediated ADCC” value was “enhance SGN-33 mediated ADCC”. For the same molecule, the “day by which mice were removed from study due to tumor progression” value in the test with HL-60 cells (lenalidomide 25 mg/kg, qd×3, ip alone, control mice about day 60, FIG. 24) is around 90 days.

As for `O=C1CCC(N2C(=O)c3ccccc3C2=O)C(=O)N1` (stereo not shown) [thalidomide], the “SGN-33 mediated ADCC” value in the test with target cells was “enhance SGN-33 mediated ADCC”. In the test with HEL 92.1.7 cells, the “sensitivity of MDR+ AML cells to HuM195-mediated CDC activity” value is on record as “enhanced the sensitivity”.

Consider “deglycosylated SGN-33: SGN-33 treated with PN-glycosidase F; does not interact with Fc receptors”, for which, in the test with CD33 [1], the “binding to CD33” value is recorded as “confirmed”. Besides, the “effector function, including ADCC or CDC activity” value in test [2] is recorded as “did not mediate effector function”. In test [3], the macrophage migration result is recorded as “significantly reduced”. Moreover, the “recruitment of SHP-1 to the CD33 complex” value with CD33 [4] was “resulted in recruitment of SHP-1”.
